The values that follow are results of earlier work, collected in patent publication US20240398745A1, “COMPOSITION AND METHODS OF TREATMENT USING […] - ENHANCED SUPPLEMENTATION” (Xygenyx Inc., priority 2023, published 2024).

Series [1] relates to wide dynamic range neurons in the ventroposterolateral nucleus of the thalamus. To be noted: believed.
The conditions of series [2]: in vivo.
Series [3] has as its system skin. The note with it: topical, concentrations 0.5-5%.
The subject of series [4] is skin. To be noted: topical formulations, within four weeks of treatment.
The conditions of series [5]: α-tocopherol taken as 1.0.
The conditions of series [6]: even when dietary intake occurs in equal portions.
For series [7] the following is noted: in vivo. This is another data set of the same source.

Square brackets hold non-standard residues; d marks the D form. Peptide text beside a SMILES is read from it. Cit = NC(=O)NCCC[C@H](N)C(=O)O Bounds are passed on as bounds.

On to `CCCCCc1cc(O)c2c(c1)OC(C)(C)C1CCC(C)=CC21` (stereo not drawn) [THC, Δ-9-tetrahydrocannabinol], for which the “power in mediating pain relative to morphine” value in series [1] was “ten times more powerful than morphine”.

As for `CCNC(=O)CC[C@H](N)C(=O)O` [Theanine], the “dose generally considered safe and well-tolerated” value in series [2] is listed as “up to 400 mg per day”.

Regarding `C=CCCCCCCCCC(=O)N[C@@H](Cc1ccccc1)C(=O)O` [UP, Undecylenoyl phenylalanine], the “time of treatment to skin lightening effects” value in the series with skin [3] is listed as at least 7 days.

As for `CC[C@H](C)[C@H](NC(=O)[C@H](CC(=O)O)NC(=O)[C@@H](N)CCCCN)C(=O)N[C@@H](CCCNC(N)=O)C(N)=O` [tripeptide-10 citrulline, Tripeptide-10 citrulline] (H-KDI[Cit]-NH2), in the series with skin [4], the improvement of suppleness is at most 54%.

Regarding `Cc1c(C)c2c(c(C)c1O)CC[C@@](C)(CCC[C@H](C)CCC[C@H](C)CCCC(C)C)O2` [α-tocopherol], the “reduction of risk of coronary disease” value (dietary supplementation, doses up to 400 IU/day) is reported as “up to 34%”. The “reduction of risk of developing neurodegenerative diseases such as Alzheimer's Syndrome or dementia” value (dietary supplementation, doses up to 400 IU/day, controlled trials) is reported as at most 24%. The “reduction in the development of age-related cataracts” value (in combination with 10-20 mg β-carotene and 400-500 mg vitamin C, doses around 400-500 IU) was 23%.

Take `Cc1cc(O)c(C)c2c1O[C@](C)(CCC[C@H](C)CCC[C@H](C)CCCC(C)C)CC2` [β-tocopherol]: the relative biological activity in series [5] is 0.5.

Regarding `Cc1c(O)cc2c(c1C)O[C@](C)(CCC[C@H](C)CCC[C@H](C)CCCC(C)C)CC2` [γ-tocopherol], in series [6], the “concentration in vivo relative to α-tocopherol” value was “roughly 10%”. The relative biological activity in series [5] is on record as 0.1.

As to `Cc1cc(O)cc2c1O[C@](C)(CCC[C@H](C)CCC[C@H](C)CCCC(C)C)CC2` [δ-tocopherol], the relative biological activity in series [5] is reported as 0.03.

With “HGH: hormone comprising a peptide chain that is synthesized in the pituitary gland”, the biological half-life in series [7] is given as 10-20 minutes.
